Laboratory results reported in patent publication US9102671B2, “Compounds and compositions as TRK inhibitors” (Novartis AG, priority 2011, dated 2015).

What was measured:
[1] = target: T1, Ba/F3 cells co-expressing full length rTrkA and mNGF (Rattus norvegicus, UniProt P35739); assay: Ba/F3 cell proliferation, BaF3/TRKA-NGF; assay type: cell-based; conditions: inhibition of proliferation, 48 hours, Bright-Glo luminescence
T1 construct: co-expressing full length rTrkA and mNGF; expressed in transfected cells; host or cells: Ba/F3 murine hematopoietic progenitor cells
T1 sequence (P35739 33-799): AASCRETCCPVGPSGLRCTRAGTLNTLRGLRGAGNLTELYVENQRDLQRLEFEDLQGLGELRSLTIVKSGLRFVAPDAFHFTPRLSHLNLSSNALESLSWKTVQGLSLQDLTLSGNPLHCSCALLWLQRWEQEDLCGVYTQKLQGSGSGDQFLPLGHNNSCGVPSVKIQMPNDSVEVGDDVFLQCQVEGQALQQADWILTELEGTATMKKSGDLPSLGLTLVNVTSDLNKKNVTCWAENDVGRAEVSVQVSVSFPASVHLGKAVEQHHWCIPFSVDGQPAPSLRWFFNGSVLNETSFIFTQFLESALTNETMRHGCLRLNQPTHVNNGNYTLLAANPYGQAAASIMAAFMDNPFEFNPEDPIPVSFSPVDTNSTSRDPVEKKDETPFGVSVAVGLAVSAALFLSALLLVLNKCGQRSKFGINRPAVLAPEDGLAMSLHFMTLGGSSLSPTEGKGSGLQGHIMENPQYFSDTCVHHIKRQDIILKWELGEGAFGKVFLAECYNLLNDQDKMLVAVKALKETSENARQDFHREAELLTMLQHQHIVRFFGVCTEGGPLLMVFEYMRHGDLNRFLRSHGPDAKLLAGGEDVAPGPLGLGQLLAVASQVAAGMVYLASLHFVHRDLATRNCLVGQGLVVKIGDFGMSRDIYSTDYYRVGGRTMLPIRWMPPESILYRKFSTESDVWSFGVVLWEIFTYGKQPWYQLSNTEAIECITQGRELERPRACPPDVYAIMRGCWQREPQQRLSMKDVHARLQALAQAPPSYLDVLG
T1 sequence (P01139 122-241 partner): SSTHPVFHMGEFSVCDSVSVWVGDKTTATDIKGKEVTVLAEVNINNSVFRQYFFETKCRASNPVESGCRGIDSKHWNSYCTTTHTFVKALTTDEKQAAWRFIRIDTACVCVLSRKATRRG

[2] = tested on: parental (untransformed) Ba/F3 cells; assay: Ba/F3 cell proliferation, BAF3/WT (parental, IL3); assay type: cell-based, murine; conditions: Mus musculus, inhibition of proliferation of parental cells with IL3, 48 hours, Bright-Glo luminescence
Method: (§1) Test compounds were dissolved in DMSO (10 mM) and transferred into 1.4 mL flat bottom or V-shaped Matrix tubes carrying a unique 2D matrix chip by individual compound hubs. The numbers of these chips were distinctively linked to the individual compound identification numbers. The stock solutions were stored at −20° C. if not used immediately. For the test procedure the vials were defrosted and identified by a scanner whereby a working sheet is generated that guides the subsequent working steps.
(§2) Compound dilutions were made in 384 well plates. This format enabled the assay of maximally 28 individual test compounds at 11 concentrations (single points) including 2 reference compounds. The dilution protocol included the production of pre-dilution plates, master plates and assay plates: • Compound plates: 30 μL of individual compound (10 mM) DMSO solution including reference compound were transferred into columns 1 and 13 of a 384 well plate. 20 μL of DMSO were added to the rest of the wells and the compounds were serially diluted (1:3) by transferring 10 μL from a well in column 1 or 13 to the next well in column 2 or 14 respectively and successively with the help of a Minitrack robot. • Assay plates: Identical assay plates were then prepared by adding 50 nL each of compound dilutions of the compound plates into 384-well “assay plates”. In the following the compounds were mixed with 50 μL of assays components (cells or enzyme) and tested for their inhibitory activity.
Compounds were tested for their ability to inhibit the proliferation of wt Ba/F3 cells and Ba/F3 cells transformed with constitutively expressed luciferase reporter and BCR-ABL or Tel-FMS or other Tel fusion kinases (EGFR, JAK2, ALK, BMX, FGFR3, FGFR4, FGR2, FLT1, FLT3, IGF1R, INSR, KDR, KIT, LCK, LYN, MEK, MET, PDGFRα, PDGFRβ, RET, RON, ROS, SRC, SYK, TIE and TYRO) or BRafV600E. Parental Ba/F3 cells were maintained in media containing recombinant mouse IL3 and the kinase transformed Ba/F3 cells were maintained in media without IL-3. 7.5 nl of compounds were spotted to each well of 1536-well assay plates by Liquid handling System Echo 555 (Labcyte). 700 cells were then plated into each well of the assay plates in 7 uL culture media per well and compounds were tested at 0.17 nM to 10 uM in 3-fold serial dilutions. The cells were then incubated for 48 hours at 37° C. 3 uL of Bright-Glo® (Promega) was added to each well and the plates were read using ViewLux (PerkinElmer).
The cell line used is the luciferase expressing Ba/F3 murine hematopoietic progenitor cell line transformed with human Tel-TrkA, Tel-TrkB or Tel-TrkC cDNAs (Ba/F3 EN A/B/C). These cells maintained in RPMI/10% fetal bovine serum (RPMI/FCS) supplemented with penicillin 50 mg/mL, streptomycin 50 mg/mL and L-glutamine 200 mM. Untransformed Ba/F3 cells were similarly maintained with the addition 5 ng/ml of murine recombinant IL3. 50 μl of a Ba/F3 or Ba/F3 EN A/B/C cell suspension were plated in Greiner 384 well microplates (white)) at a density of 2000 cells per well. 50 nl of serially diluted test compound (10-0.0001 mM in DMSO solution) is added to each well. The cells were incubated for 48 hours at 37° C., 5% CO2. 25 μl of Bright Glo® (Promega) luciferase substrate is added to each well. The emited luminiscence is quantified using ViewLux (PerkinElmer). IC50 values were calculated by linear regression analysis of the percentage inhibition of each compound at 11 concentrations. […]

[3] = target: T2, Ba/F3 cells transformed with human Tel-TrkA (Homo sapiens, UniProt P04629); assay: Ba/F3 cell proliferation, Ba/F3 Tel-TrkA; assay type: cell-based; conditions: inhibition of proliferation, 48 hours, Bright-Glo luminescence; read-out: Ba/F3Tel-TrkA
T2 construct: expressed in transfected cells; host or cells: luciferase expressing Ba/F3 murine hematopoietic progenitor cell line; the other entry of the earlier key: ETV6 (P41212, Transcription factor ETV6)
T2 sequence (P04629 510-796 limits assumed): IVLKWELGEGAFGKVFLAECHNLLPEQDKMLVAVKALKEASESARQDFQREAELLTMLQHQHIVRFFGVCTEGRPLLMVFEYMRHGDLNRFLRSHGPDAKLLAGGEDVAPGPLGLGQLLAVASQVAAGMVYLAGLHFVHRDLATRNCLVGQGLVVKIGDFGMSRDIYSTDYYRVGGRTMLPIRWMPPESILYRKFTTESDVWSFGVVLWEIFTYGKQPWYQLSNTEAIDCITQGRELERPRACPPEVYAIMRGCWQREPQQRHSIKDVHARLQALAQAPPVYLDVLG
Method: as §1, §2
The cell line used is the luciferase expressing Ba/F3 murine hematopoietic progenitor cell line transformed with human Tel-TrkA, Tel-TrkB or Tel-TrkC cDNAs (Ba/F3 EN A/B/C). These cells maintained in RPMI/10% fetal bovine serum (RPMI/FCS) supplemented with penicillin 50 mg/mL, streptomycin 50 mg/mL and L-glutamine 200 mM. Untransformed Ba/F3 cells were similarly maintained with the addition 5 ng/ml of murine recombinant IL3. 50 μl of a Ba/F3 or Ba/F3 EN A/B/C cell suspension were plated in Greiner 384 well microplates (white)) at a density of 2000 cells per well. 50 nl of serially diluted test compound (10-0.0001 mM in DMSO solution) is added to each well. The cells were incubated for 48 hours at 37° C., 5% CO2. 25 μl of Bright Glo® (Promega) luciferase substrate is added to each well. The emited luminiscence is quantified using ViewLux (PerkinElmer). IC50 values were calculated by linear regression analysis of the percentage inhibition of each compound at 11 concentrations.
In certain examples compounds of Formula (I) have IC50 values from 0.1 nM 1 μM. In other examples, compounds of Formula (I) have IC50 values from 0.0001 μM to 0.8 μM. In other examples, compounds of Formula (I) have IC50 values from 0.0001 μM to 0.6 μM. In other examples, compounds of Formula (I) have IC50 values from 0.0001 μM to 0.4 μM. In other examples, compounds of Formula (I) have IC50 values from 0.0001 μM to 0.2 μM. In other examples, compounds of Formula (I) have IC50 values from 0.0001 μM to 0.1 μM. In other examples, compounds of Formula (I) have IC50 values from 0.0001 μM to 0.08 μM. In other examples, compounds of Formula (I) have IC50 values from 0.0001 μM to 0.06 μM. In other examples, compounds of Formula (I) have IC50 values from 0.0001 μM to 0.04 μM. In other examples, compounds of Formula (I) have IC50 values from 0.0001 μM to 0.02 μM. In other examples, compounds of Formula (I) have IC50 values from 0.0001 μM to 0.01 μM. In other examples, compounds of Formula (I) have IC50 values from 0.01 μM to 1 μM.

| IC50 [1] | melting point | IC50 [3] | Compound | IC50 [2] |
| --- | --- | --- | --- | --- |
| 0.008 µM | 140 °C (dec.) | 0.005 µM | N#Cc1cc(F)cc([C@H]2C[C@H](F)CN2c2ccn3ncc(C(N)=O)c3c2)c1 [Example X-10, 5-((2R,4S)-2-(3-cyano-5-fluorophenyl)-4-fluoropyrrolidin-1-yl)pyrazolo[1,5-a]pyridine-3-carboxamide] | > 10 µM |
| 0.176 µM |  | 0.154 µM | NC(=O)Nc1cnn2ccc(N3C[C@@H](F)C[C@@H]3c3cccc(F)c3)cc12 [Example X-23, 1-(5-((2R,4S)-4-fluoro-2-(3-fluorophenyl)pyrrolidin-1-yl)pyrazolo[1,5-a]pyridin-3-yl)urea] | > 10 µM |
| 0.007 µM |  | 0.007 µM | CC(C)NC(=O)c1ccc(F)cc1C1CC(F)(F)CN1c1ccn2ncc(C(N)=O)c2c1 (stereo not shown) [Example X-18, 5-(4,4-difluoro-2-{5-fluoro-2-[(propan-2-yl)carbamoyl]phenyl}pyrrolidin-1-yl)pyrazolo[1,5-a]pyridine-3-carboxamide] | > 10 µM |
| 0.003 µM |  | 0.003 µM | CCOC(=O)c1cnn2ccc(N3CC(F)(F)C[C@@H]3c3cccc(F)c3)cc12 [Example X-2, (R)-ethyl 5-(4,4-difluoro-2-(3-fluorophenyl)pyrrolidin-1-yl)pyrazolo[1,5-a]pyridine-3-carboxylate] | > 10 µM |
| > 10 µM |  | > 10 µM | CN1CCN(c2ccn3ncc(C(N)=O)c3c2)C(c2ccccc2)C1 (stereo not shown) [Example X-29] | > 10 µM |
| 0.179 µM |  | 0.177 µM | O=C(Nc1cnn2ccc(N3C[C@@H](F)C[C@@H]3c3cccc(F)c3)cc12)OCc1ccccc1 [Example X-21, benzyl (5-((2R,4S)-4-fluoro-2-(3-fluorophenyl)pyrrolidin-1-yl)pyrazolo[1,5-a]pyridin-3-yl)carbamate] | > 10 µM |
| 0.024 µM |  | 0.021 µM | N#Cc1cc(F)cc([C@H]2CC(F)(F)CN2c2ccn3ncc(C(N)=O)c3c2)c1 [Example X-11, (R)-5-(2-(3-cyano-5-fluorophenyl)-4,4-difluoropyrrolidin-1-yl)pyrazolo[1,5-a]pyridine-3-carboxamide] | > 10 µM |
| 0.341 µM |  | 0.712 µM | NC(=O)c1cnn2ccc(N3CCCC3c3ccccc3C(F)(F)F)cc12 (stereo not shown) [Example X-13, 5-{2-[2-(trifluoromethyl)phenyl]pyrrolidin-1-yl}pyrazolo[1,5-a]pyridine-3-carboxamide] | > 10 µM |
| 0.007 µM |  | 0.007 µM | CCOC(=O)c1cnn2ccc(N3C[C@@H](C#N)C[C@@H]3c3cccc(F)c3)cc12 [Example X-19, ethyl 5-((2R,4S)-4-cyano-2-(3-fluorophenyl)pyrrolidin-1-yl)pyrazolo[1,5-a]pyridine-3-carboxylate] | > 10 µM |
| 0.666 µM |  | 1.68 µM | O=C(O)c1cnn2ccc(N3CC(F)(F)C[C@@H]3c3cccc(F)c3)cc12 [Example X-4, (R)-5-(4,4-difluoro-2-(3-fluorophenyl)pyrrolidin-1-yl)pyrazolo[1,5-a]pyridine-3-carboxylic acid] | > 10 µM |
| 0.006 µM |  | 0.005 µM | CC(C)(C)NC(=O)c1cnn2ccc(N3C[C@@H](F)C[C@@H]3c3cccc(F)c3)cc12 [Example X-16, N-tert-butyl-5-[(2R,4S)-4-fluoro-2-(3-fluorophenyl)pyrrolidin-1-yl]pyrazolo[1,5-a]pyridine-3-carboxamide] | > 10 µM |
